Format in all cases: cell-based
Assay [1] concerns U937 cells (human monocytic cell line). The assay is described as follows: Pam2CSK4-induced TNF-α secretion inhibition in PMA-differentiated U937 cells. Particulars: U-937, U937 cells differentiated with PMA, read-out: TNF-α production inhibition grade (IC50). The procedure: (§1) To evaluate anti-inflammatory efficacy, U937 cells (human monocytic cell line) were differentiated into macrophages using PMA (phorbol 12-myristate 13-acetate) and then induced an inflammatory response with Pam2CSK4 (Pam2CysSerLys4) or BzATP (2′(3′)—O-(4-Benzoylbenzoyl)adenosine 5′-triphosphate), the efficacy of taurine-bile acid derivatives in suppressing inflammatory cytokine (IL-1β, TNF-α) production was measured.
(§2) Using PMA, U937 cells were differentiated into macrophages, and the extent of TNF-α secretion inhibition was measured in an experimental group where taurine-bile acid derivatives was treated, followed by induction of inflammatory response with Pam2CSK4, and in the experimental group in which an inflammatory response was induced with BzATP, the extent to which IL-1β secretion among cytokines was suppressed was measured.
(§3) The ability of taurine-bile acid derivatives to inhibit cytokine production was expressed in terms of IC50 (μM) values. The standards for TNF α inhibition ability are A: less than 0.5, B: 0.5 to less than 1.0, C: 1.0 to less than 2.0, D: 2.0 or more, and the IL-1β inhibition ability grade standards are A: less than 0.05, B: 0.05 to less than 0.10, C: 0.10 or more and less than 0.20, D: 0.20 or more.

For assay [2], the system named is J774A.1 (Mouse BALB/c monocyte macrophage cell line) cells. As to the kind of experiment: LPS-induced TNF-α secretion inhibition in J774A.1 cells. Particulars: J774.A1, 1 μM compound, graded compared to taurodeoxycholic acid (positive control), read-out: TNF-α production inhibition grade. The procedure: (§4) To evaluate anti-inflammatory efficacy, an inflammatory response was induced in J774A.1 (Mouse BALB/c monocyte macrophage cell line) cells derived from mouse macrophages by LPS (lipopolysaccharide) and LPS+ATP (adenosine triphosphate), and the efficacy of taurine-bile acid derivatives to inhibit the production of inflammatory cytokines (IL-1β, TNF-α) was measured. After treating J774A.1 cells with 1 μM of a taurine-bile acid derivative, the degree to which the secretion of TNF-α among cytokines was suppressed was measured in the experimental group in which an inflammatory response was induced by LPS, and the extent to which IL-1β secretion among cytokines was suppressed was measured in the experimental group in which an inflammatory response was induced with LPS+ATP. The ability of taurine-bile acid derivatives to inhibit cytokine production was graded compared to taurodeoxycholic acid, a positive control. The grading criteria are A: over 100%, B: over 50% and under 100%, C: between 20% and under 50%, and D: under 20%.

Assay [3] has as its system U937 cells (human monocytic cell line). The assay is described as follows: BzATP-induced IL-1β secretion inhibition in PMA-differentiated U937 cells. Particulars: U-937, U937 cells differentiated with PMA, read-out: IL-1β production inhibition grade (IC50). The procedure: as §1, §2, §3
Assay [4] relates to J774A.1 (Mouse BALB/c monocyte macrophage cell line) cells. The assay is described as follows: LPS+ATP-induced IL-1β secretion inhibition in J774A.1 cells. Particulars: J774.A1, 1 μM compound, graded compared to taurodeoxycholic acid (positive control), read-out: IL-1β production inhibition grade. The procedure: as §4

pIC50: −log10 of the molar value.

Turning to `C[C@H](CCC(=O)NCS(=O)(=O)O)[C@H]1CC[C@H]2[C@@H]3CC[C@@H]4C[C@H](O)CC[C@]4(C)[C@H]3C[C@H](O)[C@]12C` [NC10001], the negative logarithm of the IC50 (pIC50) (usually −log10 of the IC50, conventionally taken in molar units) in assay [1] was no more than 5.70; in assay [3], greater than 7.30. The figures for the inhibition at 1 µM in assay [2] and in assay [4] were less than 20% and greater than 100%, respectively.
For `C[C@H](CCC(=O)NCCCS(=O)(=O)O)[C@H]1CC[C@H]2[C@@H]3CC[C@@H]4C[C@H](O)CC[C@]4(C)[C@H]3C[C@H](O)[C@]12C` [NC10002], the pIC50 is greater than 6.30 in assay [1] and greater than 7.30 in assay [3]. Further, the inhibition at 1 µM in assay [2] and in assay [4] was greater than 100% throughout.
On to `C[C@H](CCC(=O)Nc1ccc(S(=O)(=O)O)cc1)[C@H]1CC[C@H]2[C@@H]3CC[C@@H]4C[C@H](O)CC[C@]4(C)[C@H]3C[C@H](O)[C@]12C` [NC10003], for which the pIC50 was greater than 6.30 in assay [1] and greater than 7.30 in assay [3]. Besides, the inhibition at 1 µM in assay [2] and in assay [4] was greater than 100% in each case.
As to `C[C@H](CCC(=O)N(CCS(=O)(=O)O)C1CCCCC1)[C@H]1CC[C@H]2[C@@H]3CC[C@@H]4C[C@H](O)CC[C@]4(C)[C@H]3C[C@H](O)[C@]12C` [NC10004], the negative logarithm of the IC50 (pIC50) was no more than 5.70 in assay [1] and no more than 6.70 in assay [3]. Besides, the inhibition (commonly the relative decrease from the control value, in per cent) at 1 µM is 20 to 50% in assay [2] and 50 to 100% in assay [4].
For `C[C@H](CCC(=O)N(CCS(=O)(=O)O)CC(N)=O)[C@H]1CC[C@H]2[C@@H]3CC[C@@H]4C[C@H](O)CC[C@]4(C)[C@H]3C[C@H](O)[C@]12C` [NC10005], in that order: 5.70 to 6.00, 6.70 to 7.00, less than 20% and 20 to 50%.
Regarding `C[C@H](CCC(=O)N(C)CCS(=O)(=O)O)[C@H]1CC[C@H]2[C@@H]3CC[C@@H]4C[C@H](O)CC[C@]4(C)[C@H]3C[C@H](O)[C@]12C` [NC10006], the figures for the pIC50 in assay [1] and in assay [3] were 6.00 to 6.30 and no more than 6.70, respectively. In addition, the inhibition at 1 µM is less than 20% in assay [2] and 50 to 100% in assay [4].
As for `C[C@H](CCC(=O)NCCOS(=O)(=O)O)[C@H]1CC[C@H]2[C@@H]3CC[C@@H]4C[C@H](O)CC[C@]4(C)[C@H]3C[C@H](O)[C@]12C` [NC10007], the values for the pIC50 in assay [1] and in assay [3] were no more than 5.70 and greater than 7.30, respectively. In addition, the inhibition at 1 µM in assay [2] and in assay [4] was 50 to 100% each time.
As to `C[C@H](CCC(=O)N1CCC(CCS(=O)(=O)O)CC1)[C@H]1CC[C@H]2[C@@H]3CC[C@@H]4C[C@H](O)CC[C@]4(C)[C@H]3C[C@H](O)[C@]12C` [NC10008], the values for the pIC50 in assay [1] and in assay [3] were greater than 6.30 and greater than 7.30, respectively. Besides, the inhibition at 1 µM in assay [2] and in assay [4] was greater than 100% throughout.
In the case of `C[C@H](CCC(=O)N1CCN(S(=O)(=O)O)CC1)[C@H]1CC[C@H]2[C@@H]3CC[C@@H]4C[C@H](O)CC[C@]4(C)[C@H]3C[C@H](O)[C@]12C` [NC10009], the values for the pIC50 in assay [1] and in assay [3] were greater than 6.30 and greater than 7.30, respectively. The inhibition at 1 µM in assay [2] and in assay [4] was greater than 100% in each case.
Turning to `C[C@H](CCC(=O)N1CCN(CCS(=O)(=O)O)CC1)[C@H]1CC[C@H]2[C@@H]3CC[C@@H]4C[C@H](O)CC[C@]4(C)[C@H]3C[C@H](O)[C@]12C` [NC10010], the results for the negative logarithm of the IC50 (pIC50) in assay [1] and in assay [3] were greater than 6.30 and greater than 7.30, respectively. Also, the inhibition at 1 µM in assay [2] and in assay [4] was greater than 100% throughout.
For `C[C@H](CCC(=O)N1CCC(S(=O)(=O)O)CC1)[C@H]1CC[C@H]2[C@@H]3CC[C@@H]4C[C@H](O)CC[C@]4(C)[C@H]3C[C@H](O)[C@]12C` [NC10011], the figures for the negative logarithm of the IC50 (pIC50) in assay [1] and in assay [3] were greater than 6.30 and greater than 7.30, respectively. The inhibition at 1 µM in assay [2] and in assay [4] was greater than 100% in each case.
Take `C[C@H](CCC(=O)N1CCC(CCS(=O)(=O)O)CC1)[C@H]1CC[C@H]2[C@@H]3CC[C@@H]4C[C@H](O)CC[C@]4(C)[C@H]3CC[C@]12C` [NC10012]: the values for the negative-log IC50 (pIC50) in assay [1] and in assay [3] were greater than 6.30 and greater than 7.30, respectively. Besides, the inhibition at 1 µM in assay [2] and in assay [4] was greater than 100% each time.
In the case of `C[C@H](CCC(=O)NCCOS(=O)(=O)O)[C@H]1CC[C@H]2[C@@H]3CC[C@@H]4C[C@H](O)CC[C@]4(C)[C@H]3CC[C@]12C` [NC10013], the pIC50 in assay [1] is 6.00 to 6.30; in assay [3], 7.00 to 7.30. Moreover, the figures for the inhibition at 1 µM in assay [2] and in assay [4] were less than 20% and 50 to 100%, respectively.
Take `C[C@H](CCC(=O)NCCCS(=O)(=O)O)[C@H]1CC[C@H]2[C@@H]3CC[C@@H]4C[C@H](O)CC[C@]4(C)[C@H]3CC[C@]12C` [NC10014]: the pIC50 in assay [1] was 5.70 to 6.00; in assay [3], greater than 7.30. In addition, the inhibition at 1 µM in assay [2] and in assay [4] was less than 20% throughout.
Regarding `C[C@H](CCC(=O)Nc1ccc(S(=O)(=O)O)cc1)[C@H]1CC[C@H]2[C@@H]3CC[C@@H]4C[C@H](O)CC[C@]4(C)[C@H]3CC[C@]12C` [NC10015], the negative logarithm of the IC50 (pIC50) is no more than 5.70 in assay [1] and greater than 7.30 in assay [3]. In addition, the inhibition at 1 µM in assay [2] and in assay [4] was less than 20% in each case.
For the compound `C[C@H](CCC(=O)N(CCS(=O)(=O)O)C1CCCCC1)[C@H]1CC[C@H]2[C@@H]3CC[C@@H]4C[C@H](O)CC[C@]4(C)[C@H]3CC[C@]12C` [NC10016], the values for the negative-log IC50 (pIC50) in assay [1] and in assay [3] were greater than 6.30 and greater than 7.30, respectively. For the same compound, the inhibition at 1 µM in assay [2] and in assay [4] was greater than 100% each time.
Consider `CCN(CC)CCNC(=O)CC[C@@H](C)[C@H]1CC[C@H]2[C@@H]3CC[C@@H]4C[C@H](O)CC[C@]4(C)[C@H]3C[C@H](O)[C@]12C` [NC10017], for which the pIC50 is 6.00 to 6.30 in assay [1] and greater than 7.30 in assay [3]. Besides, the inhibition at 1 µM in assay [2] and in assay [4] was greater than 100% each time.
`C[C@H](CCC(=O)NCCN1CCOCC1)[C@H]1CC[C@H]2[C@@H]3CC[C@@H]4C[C@H](O)CC[C@]4(C)[C@H]3C[C@H](O)[C@]12C` [NC10018]: the figures for the pIC50 in assay [1] and in assay [3] were no more than 5.70 and 7.00 to 7.30, respectively. Also, the inhibition at 1 µM in assay [2] lay within 50 to 100%; in assay [4], 20 to 50%.
In the case of `C[C@H](CCC(=O)N1CCN(C)CC1)[C@H]1CC[C@H]2[C@@H]3CC[C@@H]4C[C@H](O)CC[C@]4(C)[C@H]3C[C@H](O)[C@]12C` [NC10019], the negative logarithm of the IC50 (pIC50) was 6.00 to 6.30 in assay [1] and no more than 6.70 in assay [3]. Moreover, the results for the inhibition at 1 µM in assay [2] and in assay [4] were less than 20% and 20 to 50%, respectively.
With `C[C@H](CCC(=O)N(CCS(=O)(=O)O)Cc1ccccc1)[C@H]1CC[C@H]2[C@@H]3CC[C@@H]4C[C@H](O)CC[C@]4(C)[C@H]3C[C@H](O)[C@]12C` [NC10022], the negative-log IC50 (pIC50) was 6.00 to 6.30 in assay [1] and 6.70 to 7.00 in assay [3]. In addition, the inhibition at 1 µM lay within 20 to 50% in assay [2] and 50 to 100% in assay [4].
With `CC(C)N(CCS(=O)(=O)O)C(=O)CC[C@@H](C)[C@H]1CC[C@H]2[C@@H]3CC[C@@H]4C[C@H](O)CC[C@]4(C)[C@H]3C[C@H](O)[C@]12C` [NC10024], the negative logarithm of the IC50 (pIC50) in assay [1] is 5.70 to 6.00; in assay [3], 7.00 to 7.30. In addition, the inhibition at 1 µM in assay [2] was less than 20%; in assay [4], greater than 100%.
Take `C[C@H](CCC(=O)N1CCC[C@H](S(=O)(=O)O)C1)[C@H]1CC[C@H]2[C@@H]3CC[C@@H]4C[C@H](O)CC[C@]4(C)[C@H]3C[C@H](O)[C@]12C` [NC10026]: the negative-log IC50 (pIC50) is 5.70 to 6.00 in assay [1] and greater than 7.30 in assay [3]. The inhibition at 1 µM in assay [2] is less than 20%; in assay [4], greater than 100%.
Take `C[C@H](CCC(=O)NCCCO)[C@H]1CC[C@H]2[C@@H]3[C@H](O)C[C@@H]4C[C@H](O)CC[C@]4(C)[C@H]3C[C@H](O)[C@]12C` [NC20003]: the inhibition at 1 µM fell in the range of 50 to 100% in assay [2] and 20 to 50% in assay [4]. Also, the negative-log IC50 (pIC50) in assay [3] was 7.00 to 7.30.

(Values after patent publication US20240391948A1, “NOVEL COMPOUND THAT INHIBITS TNF-ALPHA GENERATION AND INFLAMMASOME ACTIVITY AND PREPARATION METHOD THEREFOR” (SHAPERON INC., priority 2021, published 2024).)
